Where two headings read alike, the source gives them in different places. A value given as a limit tells only on which side of the number the result lay.

For assay [1], the target named is Beta Secretase enzyme (BACE) (Homo sapiens (Human), UniProt P56817). In words: In vitro enzymatic BACE FRET assay. It is filed as biochemical. The conditions noted are these: read-out: BACE 1 FRET assay IC50. Here is the method:
In Vitro Enzymatic BACE FRET (Fluorescence Resonance Energy Transfer) Assay (Enzyme Assay Data in the Example Table I)
The assay buffer used in this screen is 0.05 M acetate, pH 4.2, 10% DMSO final, 100 uM genapol (which is a nonionic detergent, below its Critical Micelle Concentration). […] This assay is effectively started by the addition of FRET substrate (50 nM) and the combination is incubated for one hour. The FRET assay is terminated with by addition of Tris buffer, which raises the pH to neutrality, and the fluorescence is determined. The FRET substrate is a peptide with commercially available fluorophore and quencher, on opposite sides of the BACE cleavage site.

The subject of assay [2] is Aβ40 in conditioned medium of cells stably expressing Amyloid Precursor Protein (APP). In words: In vitro BACE cell-based assay (Aβ40 sandwich ELISA). The conditions noted are these: Homo sapiens. Here is the method: In Vitro BACE Cell-Based Assay
The cell-based assay measures inhibition or reduction of Aβ40 in conditioned medium of test compound treated cells expressing amyloid precursor protein.
Cells stably expressing Amyloid Precursor Protein (APP) were plated at a density of 40K cells/well in 96 well plates (Costar). The cells were cultivated for 24 hours at 37° C. and 5% CO2 in DMEM supplemented with 10% FBS. The test compounds were then added to cells in 10-point dose response concentrations with the starting concentration being either 100 μM or 10 μM. The compounds were diluted from stock solutions in DMSO and the final DMSO concentration of the test compounds on cells was 0.1%. After 24 h of incubation with the test compounds the supernatant conditioned media was collected and the Aβ 40 levels were determined using a sandwich ELISA. The IC50 of the compound was calculated from the percent of control or percent inhibition of Aβ 40 as a function of the concentration of the test compound.
The sandwich ELISA to detect Aβ 40 was performed in 96 well microtiter plates, which were pre-treated with goat anti-rabbit IgG (Pierce). The capture and detecting antibody pair that were used to detect Aβ 40 from cell supernatants were affinity purified pAb40 (Biosource) and biotinylated 6E10 (Signet Labs Inc.), respectively. The optimal concentration for the pAb40 antibody was 3 μg/ml in Superblock/TBS (Pierce) that was supplemented with 0.05% Tween 20 (Sigma).
Cellular supernatants were incubated with the capture antibody for 3 h at 4° C., followed by 3 wash steps in TBS-tween (0.05%). The detecting antibody incubation was for 2 h at 4° C., again followed by the wash steps as described previously. The final readout of the ELISA is Time-Resolved Fluorescence (counts per minute) using Delfia reagents Streptavidin-Europium and Enhancement solutions (Perkin Elmer) and the Victor 2 multilabel counter (Perkin Elmer).

The target of assay [3] is Cathepsin D (Cat D) (Homo sapiens (Human), UniProt P07339). Description: In vitro enzymatic Cathepsin D (Cat D) FRET assay. It is filed as biochemical. The conditions noted are these: read-out: CatD IC50. A digest of the protocol: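 CHO-expressed recombinant Cat D cleaves a fluorophore/quencher FRET peptide (20 nM) in 0.05 M citrate pH 3.5, 5 mM CHAPS, 10% DMSO final, over 1 h. Tris addition neutralizes pH to stop the reaction; fluorescence read at excitation 500 nm, emission 580 nm.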

The mark [4] stands for this setting: HEK293, average IC50, HEK cells, read-out: HEK cell assay IC50.
[5] abbreviates: HEK293, read-out: HEK cell assay IC50.
Setting [6] is: average IC50, BACE enzyme assay.
Where [7] appears, read: HEK293, average IC50, HEK cell assay, read-out: HEK cell assay IC50.
[8] abbreviates: average IC50, cathepsin D enzyme assay.

Sequence of Cathepsin D (Cat D) (P07339 65-412, species assumed): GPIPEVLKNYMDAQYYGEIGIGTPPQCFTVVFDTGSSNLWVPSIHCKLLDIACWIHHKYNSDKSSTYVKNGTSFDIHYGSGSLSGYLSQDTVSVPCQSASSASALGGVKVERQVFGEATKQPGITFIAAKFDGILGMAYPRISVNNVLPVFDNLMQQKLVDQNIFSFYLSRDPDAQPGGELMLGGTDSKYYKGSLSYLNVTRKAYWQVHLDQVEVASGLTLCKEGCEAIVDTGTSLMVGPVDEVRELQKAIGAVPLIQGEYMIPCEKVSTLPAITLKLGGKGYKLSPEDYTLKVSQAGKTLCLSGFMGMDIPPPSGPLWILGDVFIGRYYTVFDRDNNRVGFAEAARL
Sequence of Beta Secretase enzyme (BACE) (P56817 46-501): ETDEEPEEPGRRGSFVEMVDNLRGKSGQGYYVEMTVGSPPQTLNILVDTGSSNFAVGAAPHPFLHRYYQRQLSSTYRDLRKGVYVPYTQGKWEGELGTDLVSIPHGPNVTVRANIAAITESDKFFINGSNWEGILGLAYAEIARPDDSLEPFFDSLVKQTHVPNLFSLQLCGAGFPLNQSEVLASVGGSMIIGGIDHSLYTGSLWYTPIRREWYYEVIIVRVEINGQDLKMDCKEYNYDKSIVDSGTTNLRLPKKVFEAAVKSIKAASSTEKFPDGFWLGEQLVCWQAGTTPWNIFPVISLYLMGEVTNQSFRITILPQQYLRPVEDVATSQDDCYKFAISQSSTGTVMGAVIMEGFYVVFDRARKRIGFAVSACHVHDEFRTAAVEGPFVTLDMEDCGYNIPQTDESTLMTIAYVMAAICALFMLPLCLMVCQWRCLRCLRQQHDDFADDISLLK

For the molecule `COc1cnc2c(Nc3ccc(F)c([C@]4(CF)C[C@@H](C(F)(F)F)OC(N)=N4)c3)nccc2n1` (racemic) [Example 9, (4S,6S)-4-(2-fluoro-5-((2-methoxypyrido[3,4-b]pyrazin-5-yl)amino)phenyl)-4-(fluoromethyl)-6-(trifluoromethyl)-5,6-dihydro-4H-1,3-oxazin-2-amine], the IC50 in assay [1] (average IC50) was 0.05 µM; in assay [2] (setting [4]), 0.372 µM; in assay [3] (average IC50) it was more than 400 µM.

On to `Cc1cc(Cl)cnc1C(=O)Nc1ccc(F)c([C@]2(CF)C[C@@H](C(F)(F)F)OC(N)=N2)c1` [Example 4, N-(3-((4S,6S)-2-amino-4-(fluoromethyl)-6-(trifluoromethyl)-5,6-dihydro-4H-1,3-oxazin-4-yl)-4-fluorophenyl)-5-chloro-3-methylpicolinamide], for which the IC50 is 0.008 µM in assay [1] (average IC50), 0.031 µM in assay [2] (setting [5]) and more than 400 µM in assay [3] (average IC50).

For `NC1=N[C@](CF)(c2cc(NC(=O)c3ccc(OCC(F)(F)F)cn3)ccc2F)C[C@@H](C(F)(F)F)O1` [Example 5, N-(3-((4S,6S)-2-amino-4-(fluoromethyl)-6-(trifluoromethyl)-5,6-dihydro-4H-1,3-oxazin-4-yl)-4-fluorophenyl)-5-(2,2,2-trifluoroethoxy)picolinamide], the IC50 was 0.043 µM in assay [1] (average IC50), 0.263 µM in assay [2] (setting [4]) and more than 400 µM in assay [3] (average IC50).

On to `Cc1c(C(=O)Nc2ccc(F)c([C@]3(CF)C[C@@H](C(F)(F)F)OC(N)=N3)c2)nc2ccc(Cl)cn12` [Example 6, N-(3-((4S,6S)-2-amino-4-(fluoromethyl)-6-(trifluoromethyl)-5,6-dihydro-4H-1,3-oxazin-4-yl)-4-fluorophenyl)-6-chloro-3-methylimidazo[1,2-a]pyridine-2-carboxamide], for which the values for the half-inhibitory concentration (IC50) in assay [1] (average IC50), in assay [2] (setting [4]) and in assay [3] (average IC50) were 0.036 µM, 0.0522 µM and more than 400 µM, respectively.

In the case of `Cc1c(C(=O)Nc2ccc(F)c([C@]3(CF)C[C@@H](C(F)(F)F)OC(N)=N3)c2)nc2ccccn12` [Example 7, N-(3-((4S,6S)-2-amino-4-(fluoromethyl)-6-(trifluoromethyl)-5,6-dihydro-4H-1,3-oxazin-4-yl)-4-fluorophenyl)-3-methylimidazo[1,2-a]pyridine-2-carboxamide], the IC50 was 1.52 µM in assay [1] (average IC50), 0.888 µM in assay [2] (setting [4]) and more than 400 µM in assay [3] (average IC50).

In the case of `NC1=N[C@](CF)(c2cc(Nc3nccc4cc(Cl)cnc34)ccc2F)C[C@@H](C(F)(F)F)O1` [Example 8, (4S,6S)-4-(5-((3-chloro-1,7-naphthyridin-8-yl)amino)-2-fluorophenyl)-4-(fluoromethyl)-6-(trifluoromethyl)-5,6-dihydro-4H-1,3-oxazin-2-amine], the IC50 is 0.018 µM in assay [1] (average IC50), 0.203 µM in assay [2] (setting [4]) and more than 400 µM in assay [3] (average IC50).

On to `NC1=N[C@](CF)(c2cc(Nc3ncccc3F)ccc2F)C[C@@H](C(F)(F)F)O1` [Example 14, (4S,6S)-4-(2-fluoro-5-((3-fluoropyridin-2-yl)-amino)phenyl)-4-(fluoromethyl)-6-(trifluoromethyl)-5,6-dihydro-4H-1,3-oxazin-2-amine], for which the IC50 in assay [1] (setting [6]) worked out at 0.574 µM; in assay [2] (setting [7]), 0.758 µM; in assay [3] (setting [8]), 879 µM.

As for `NC1=N[C@](CF)(c2cc(Nc3ccnc(Br)c3)ccc2F)C[C@@H](C(F)(F)F)O1` [Example 17, (4S,6S)-4-(5-((2-bromopyridin-4-yl)amino)-2-fluorophenyl)-4-(fluoromethyl)-6-(trifluoromethyl)-5,6-dihydro-4H-1,3-oxazin-2-amine], the IC50 in assay [1] (setting [6]) is 6.49 µM; in assay [2] (setting [7]), 4.34 µM; in assay [3] (setting [8]) it was 469 µM.

For the molecule `NC1=N[C@](CF)(c2cc(Nc3nccc4nc(C(F)(F)F)cnc34)ccc2F)C[C@@H](C(F)(F)F)O1` [Example 18, (4S,6S)-4-(2-fluoro-5-((2-(trifluoromethyl)pyrido[3,4-b]pyrazin-5-yl)amino)phenyl)-4-(fluoromethyl)-6-(trifluoromethyl)-5,6-dihydro-4H-1,3-oxazin-2-amine], the IC50 was 0.118 µM in assay [1] (setting [6]), 0.336 µM in assay [2] (setting [7]) and more than 14.8 µM in assay [3] (setting [8]).

As for `NC1=N[C@](CF)(c2cc(Nc3nccc4cn(C(F)F)nc34)ccc2F)C[C@@H](C(F)(F)F)O1` [Example 20, (4S,6S)-4-(5-((2-(difluoromethyl)-2H-pyrazolo[3,4-c]pyridin-7-yl)amino)-2-fluorophenyl)-4-(fluoromethyl)-6-(trifluoromethyl)-5,6-dihydro-4H-1,3-oxazin-2-amine 2,2,2-trifluoroacetate], the IC50 in assay [1] (setting [6]) is 33 µM; in assay [2] (setting [5]), 10.6 µM; in assay [3] (setting [8]), more than 400 µM.

Regarding `N#Cc1cnc2c(Nc3ccc(F)c([C@]4(CF)C[C@@H](C(F)(F)F)OC(N)=N4)c3)nccc2c1` [Example 22, 8-((3-((4S,6S)-2-amino-4-(fluoromethyl)-6-(trifluoromethyl)-5,6-dihydro-4H-1,3-oxazin-4-yl)-4-fluorophenyl)amino)-1,7-naphthyridine-3-carbonitrile], the results for the IC50 in assay [1] (average IC50), in assay [2] (setting [4]) and in assay [3] (average IC50) were 0.021 µM, 0.057 µM and more than 133 µM, respectively.

For `N#Cc1cnc2c(Nc3ccc(F)c([C@]4(CF)C[C@@H](C(F)(F)F)OC(N)=N4)c3)ncnc2c1` [Example 23, 4-((3-((4S,6S)-2-amino-4-(fluoromethyl)-6-(trifluoromethyl)-5,6-dihydro-4H-1,3-oxazin-4-yl)-4-fluorophenyl)amino)pyrido[3,2-d]pyrimidine-7-carbonitrile], the IC50 in assay [2] (setting [4]) was 0.192 µM.

Consider `N#Cc1cc(Nc2ccc(F)c([C@]3(CF)C[C@@H](C(F)(F)F)OC(N)=N3)c2)ccn1` [Example 24, 4-((3-((4S,6S)-2-amino-4-(fluoromethyl)-6-(trifluoromethyl)-5,6-dihydro-4H-1,3-oxazin-4-yl)-4-fluorophenyl)amino)picolinonitrile], for which the IC50 in assay [1] (setting [6]) worked out at 19 µM; in assay [2] (setting [7]), 7 µM; in assay [3] (setting [8]), 1760 µM.

As to `C[C@@]1(c2cc(NC(=O)c3ccc(Cl)cn3)ccc2F)C[C@@H](C(F)(F)F)OC(N)=N1` [Example 26, N-(3-((4S,6S)-2-amino-4-methyl-6-(trifluoromethyl)-5,6-dihydro-4H-1,3-oxazin-4-yl)-4-fluorophenyl)-5-chloropicolinamide], the results for the IC50 in assay [1] (average IC50), in assay [2] (setting [4]) and in assay [3] (average IC50) were 0.0123 µM, 0.0049 µM and more than 400 µM, respectively.

For `COc1cnc(C(=O)Nc2ccc(F)c([C@]3(C)C[C@@H](C(F)(F)F)OC(N)=N3)c2)cn1` [Example 27, N-(3-((4S,6S)-2-amino-4-methyl-6-(trifluoromethyl)-5,6-dihydro-4H-1,3-oxazin-4-yl)-4-fluorophenyl)-5-methoxypyrazine-2-carboxamide], the IC50 in assay [1] (average IC50) is 0.03 µM; in assay [3] (average IC50), more than 400 µM.

With `C#CCOc1ccc(C(=O)Nc2ccc(F)c([C@]3(C)C[C@@H](C(F)(F)F)OC(N)=N3)c2)nc1` [Example 28, N-(3-((4S,6S)-2-amino-4-methyl-6-(trifluoromethyl)-5,6-dihydro-4H-1,3-oxazin-4-yl)-4-fluorophenyl)-5-(prop-2-yn-1-yloxy)picolinamide], the IC50 in assay [1] (setting [6]) turned out to be 0.0176 µM; in assay [2] (setting [7]), 0.0093 µM; in assay [3] (setting [8]), 666 µM.

Turning to `NC1=N[C@](CF)(c2cc(Oc3cc(-c4ccccc4)ccn3)ccc2F)C[C@@H](C(F)(F)F)O1` [Example 102, (4S,6S)-4-(2-fluoro-5-((4-phenylpyridin-2-yl)oxy)phenyl)-4-(fluoromethyl)-6-(trifluoromethyl)-5,6-dihydro-4H-1,3-oxazin-2-amine], the results for the IC50 in assay [2] (setting [5]) and in assay [3] (average IC50) were 2.82 µM and 114 µM, respectively.

A word on the IC50: it is the concentration needed to halve the response being measured.

The values are drawn from US9296734B2 (AMGEN INC., priority 2013, dated 2016).
